Values of other authors as cited in article PMC6985722 (Antimicrobial Agents and Chemotherapy, 2020).

Test system: RSV-A clinical isolates
Set-up: method as in ref 16 = [16]; 16. Cockerill GS , Bedernjak A , Brookes D , Dowey R , Harland R , Johnson SM , Mathews N , Paradowski M , Peeples M , Scott C , Steadman M , Taylor G , Thom M , Thomas E , Ward SE , Watterson D , You
Settings: n = 20 isolates; cited from earlier work

## NCc1ccc2c(c1)nc(CN1C(=O)C3(CC3)c3ccc(F)cc31)n2CCCC(F)(F)F [RV521]
  IC50: 1.4 nM
